# Key:
# [1] = Kinematic viscosity of lactone compatibilizers; assay type: physicochemical; conditions: at 40°C
# Method: Lactone compatibilizers generally have a kinematic viscosity of less than about 7 centistokes at 40°C. […] Lactone compatibilizers may be available commercially or prepared by methods as described in U. S. patent application 10/910,495 filed August 3, 2004, incorporated herein by reference.
# [2] = Flammability test ASTM E681-01, lower and upper flammability limit in air (Example 6); assay type: physicochemical; conditions: 50 percent relative humidity; for LFL: lower flammability limit; for LFL / UFL: ASTM E681-01, 101 kPa (14.7 psia), 100 °C (212 °F); for UFL: upper flammability limit; for flammability: ASTM E681-01, 101 kPa, 100 °C
# Method: Flammable compounds may be identified by testing under ASTM (American Society of Testing and Materials) E681-01, with an electronic ignition source. Such tests of flammability were conducted on HFC-1234yf, HFC-1225ye and a mixture of the present disclosure at 101 (kPa (14.7 psia), 100 °C (212 °F), and 50 percent relative humidity, at various concentrations in air in order to determine the lower flammability limit (LFL) and upper flammability limit (UFL). The results are given in […]. TABLE 14
Compound,kinematic viscosity [1],LFL [2],UFL [2],flammability [2]
CCCCCC[C@H]1C[C@@H](C)OC1=O (relative stereo) [cis-(3-hexyl-5-methyl)dihydrofuran-2-one],4.5 centistokes,,,
FC=C(F)C(F)(F)F [HFC-1225ye (100wt%)],,Non-flammable,Non-flammable,
"FC=C(F)C(F)(F)F [HFC-1225ye, 1,2,3,3,3-pentafluoropropene]",,,,reduces the flammability
C=C(F)C(F)(F)F [HFC-1234yf (100 wt%)],,5.0 vol % in air,14.5 vol % in air,
"C=C(F)C(F)(F)F [HFC-1234yf, 2,3,3;3-tetrafluoropropene]",,,,flammable

# Source: patent EP3255116A1, “COMPOSITIONS COMPRISING A FLUOROOLEFIN” (The Chemours Company FC, LLC, priority 2005, dated 2006)
